Source: patent publication US20120129811A1, “TRICYCLIC INHIBITORS OF PRO-MATRIX METALLOPROTEINASE ACTIVATION” (priority 2010, published 2012)
Where a name gives a salt, the structure may show the parent alone.

What was measured:
[1] = molecular target: T1, proMMP9(20-445;ΔFnII) (SEQ ID NO:6) (Homo sapiens, UniProt P14780, DEL216-390); experiment: ThermoFluor binding assay with proMMP9(20-445;ΔFnII)
T1 construct: start methionine (N); made in house; host or cells: E. coli BL21(DE3) RIL
T1 sequence (P14780 with tags, fused parts or gaps DEL216-390): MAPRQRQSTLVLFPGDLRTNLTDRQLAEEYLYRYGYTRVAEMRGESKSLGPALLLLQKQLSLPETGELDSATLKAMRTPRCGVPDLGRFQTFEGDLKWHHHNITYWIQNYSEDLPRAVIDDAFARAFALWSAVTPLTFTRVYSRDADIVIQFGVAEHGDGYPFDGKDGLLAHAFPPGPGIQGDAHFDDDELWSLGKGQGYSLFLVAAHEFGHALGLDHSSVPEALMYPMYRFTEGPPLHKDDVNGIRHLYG
Experimental: (§1) The ThermoFluor® (TF) assay is a 384-well plate-based binding assay that measures thermal stability of proteins (Biomol Screen 2001, 6, 429-40; Biochemistry 2005, 44, 5258-66). The experiments were carried out using instruments available from Johnson & Johnson Pharmaceutical Research & Development, LLC. TF dye used in all experiments was […] (1,8-ANS) (Invitrogen: A-47).
(§2) Compounds were arranged in a pre-dispensed plate (Greiner Bio-one: 781280), wherein compounds were serially diluted in 100% DMSO across 11 columns within a series. Columns 12 and 24 were used as DMSO reference and contained no compound. For multiple compound concentration-response experiments, the compound aliquots (50 nL) were robotically predispensed directly into black 384-well polypropylene PCR microplates (Abgene: TF-0384/k) using a Cartesian Hummingbird liquid handler (DigiLab, Holliston, Mass.). Following compound dispense, protein and dye solutions were added to achieve the final assay volume of 3 μL. The assay solutions were overlayed with 1 μL of silicone oil (Fluka, type DC 200: 85411) to prevent evaporation.
(§3) Assay plates were robotically loaded onto a thermostatically controlled PCR-type thermal block and then heated from 40 to 90° C. at a ramp-rate of 1° C./min for all experiments. Fluorescence was measured by continuous illumination with UV light (Hamamatsu LC6) supplied via fiber optics and filtered through a band-pass filter (380-400 nm; >60D cutoff). Fluorescence emission of the entire 384-well plate was detected by measuring light intensity using a CCD camera (Sensys, Roper Scientific) filtered to detect 500±25 nm, resulting in simultaneous and independent readings of all 384 wells. A single image with 20-sec exposure time was collected at each temperature, and the sum of the pixel intensity in a given area of the assay plate was recorded vs temperature and fit to standard equations to yield the Tm (J Biomol Screen 2001, 6, 429-40).
(§4) Thermodynamic parameters necessary for fitting compound binding for each proMMP were estimated by differential scanning calorimetry (DSC) and from ThermoFluor® data. The heat capacity of unfolding for each protein was estimated from the molecular weight and from ThermoFluor® dosing data.
ThermoFluor® with proMMP9(20-445; ΔFnII (SEQ ID NO:6)
The protein sample preparations included a desalting buffer exchange step via a PD-10 gravity column (GE Healthcare). The desalting buffer exchange was performed prior to diluting the protein to the final assay concentration of 2.8 μM proMMP9(20-445;ΔFnII) (SEQ ID NO:6). The concentration of proMMP9(20-445;ΔFnII) (SEQ ID NO:6) was determined spectrophotometrically based on a calculated extinction coefficient of ε280=39880 M^−1 cm^−1, a calculated molecular weight of 28.2 kDa, and calculated pI of 5.5. ThermoFluor® reference conditions were define as follows: 80 μg/mL (2.8 μM) proMMP9(20-445;ΔFnII) (SEQ ID NO:6), 50 μM 1,8-ANS, pH 7.0 Buffer (50 mM HEPES pH 7.0, 100 mM NaCl, 0.001% Tween-20, 2.5 mM MgCl2, 300 μM CaCl2). The thermodynamic parameters for proMMP9(20-445;ΔFnII) (SEQ ID NO:6) are as follows: Tm (° C.)=72 (+/−0.1), ΔUH(Tm) (cal mol^−1)=160000(+/−5000), ΔUSTm (cal mol^−1 K^−1)=434, ΔUCp (cal mol^−1 K^−1)=2400.

[2] = molecular target: T2, full-length proMMP9(1-707) activation by catalytic MMP3 (Homo sapiens, UniProt P14780, R574P); experiment: proMMP9/MMP3 P126 Activation Assay; type: biochemical
T2 construct: made in house; host or cells: proMMP9: HEK293 (secreted); MMP3: E. coli
Experimental: proMMP9/MMP3 P126 Activation Assay
The reaction volume was 50 μL. […] Reactivity of residual MMP3 towards P-126 substrate was minimal under these conditions.

[3] = molecular target: T3, proMMP9(67-444;ΔFnII) (SEQ ID NO:5) (Homo sapiens, UniProt P14780, DEL216-390); experiment: ThermoFluor binding assay with proMMP9(67-444;ΔFnII)
T3 construct: start methionine (N); made in house; host or cells: E. coli BL21(DE3) RIL
T3 sequence (P14780 with tags, fused parts or gaps DEL216-390): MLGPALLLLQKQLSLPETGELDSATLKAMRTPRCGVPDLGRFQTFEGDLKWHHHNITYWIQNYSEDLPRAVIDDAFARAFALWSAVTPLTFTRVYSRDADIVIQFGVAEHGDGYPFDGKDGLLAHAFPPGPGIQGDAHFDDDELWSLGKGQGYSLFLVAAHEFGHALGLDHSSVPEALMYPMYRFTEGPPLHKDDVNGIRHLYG
Experimental: as §1, §2, §3, §4
ThermoFluor® with proMMP9(67-444;ΔFnM (SEQ ID NO:5)
The protein sample preparations had to include a desalting buffer exchange step via a PD-10 gravity column (GE Healthcare). The desalting buffer exchange was performed prior to diluting the protein to the final assay concentration of 3.5 μM proMMP9(67-444;ΔFnII) (SEQ ID NO:5). The concentration of proMMP9(67-444;ΔFnII) (SEQ ID NO:5) was determined spectrophotometrically based on a calculated extinction coefficient of ε280=33900 M^−1 cm^−1, a calculated molecular weight of 22.6 kDa, and calculated pI of 5.20. ThermoFluor® reference conditions were defined as follows: 80 μg/mL (3.5 μM) proMMP9(67-444;ΔFnII) (SEQ ID NO:5), 50 μM 1,8-ANS, pH 7.0 Buffer (50 mM HEPES pH 7.0, 100 mM NaCl, 0.001% Tween-20, 2.5 mM MgCl2, 300 μM CaCl2). The thermodynamic parameters for proMMP9(67-444;ΔFnII) (SEQ ID NO:5) are as follows: Tm (° C.)=63 (+/−0.1), ΔUH(Tm)(cal mol^−1)=105000(+/−5000), ΔUS(Tm) (cal mol^−1 K^−1)=450, ΔUCp (cal mol^−1 K^−1)=2000.

T2 sequence (P14780 20-707 R574P): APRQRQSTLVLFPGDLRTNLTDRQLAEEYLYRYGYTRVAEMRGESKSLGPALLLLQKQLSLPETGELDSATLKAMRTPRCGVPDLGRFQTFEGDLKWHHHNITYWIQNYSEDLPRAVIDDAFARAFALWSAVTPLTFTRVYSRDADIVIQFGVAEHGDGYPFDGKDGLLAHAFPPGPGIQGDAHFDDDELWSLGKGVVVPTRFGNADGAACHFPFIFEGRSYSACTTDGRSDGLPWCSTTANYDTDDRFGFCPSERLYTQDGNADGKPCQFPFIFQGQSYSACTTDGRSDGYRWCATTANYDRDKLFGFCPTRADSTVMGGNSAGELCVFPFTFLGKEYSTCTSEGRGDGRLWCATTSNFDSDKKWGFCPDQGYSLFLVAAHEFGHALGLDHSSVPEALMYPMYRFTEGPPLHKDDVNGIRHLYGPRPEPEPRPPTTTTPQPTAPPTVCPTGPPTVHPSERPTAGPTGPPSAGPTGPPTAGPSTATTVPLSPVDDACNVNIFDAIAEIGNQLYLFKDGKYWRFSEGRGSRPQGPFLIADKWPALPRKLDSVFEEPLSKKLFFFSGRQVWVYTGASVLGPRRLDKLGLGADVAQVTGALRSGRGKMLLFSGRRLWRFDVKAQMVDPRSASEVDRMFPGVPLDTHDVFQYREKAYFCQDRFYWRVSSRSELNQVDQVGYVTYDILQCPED

Kd [1] [nM]	IC50 [2] [nM]	Kd [3] [nM]	Compound
1500	330	1100	CNS(=O)(=O)c1ccc(OC)c(Nc2nc3c(ccc4c3ncn4C)s2)c1 [Example 82, 4-Methoxy-N-methyl-3-(6-methyl-6H-imidazo[4′,5′:3,4]-benzo[2,1-d]thiazol-2-ylamino)-benzenesulfonamide.HCl]
580	150	150	COc1ccc(C#N)cc1Nc1nc2c(ccc3c2ccn3C)s1 [Example 85, 4-Methoxy-3-(6-methyl-6H-thiazolo[4,5-e]indol-2-ylamino)-benzonitrile.HCl]
> 95000	650	680	Cn1cnc2c3nc(Nc4ccc(C#N)cc4OC(F)(F)F)sc3ccc21 [Example 86, 4-(6-Methyl-6H-imidazo[4′,5′:3,4]benzo[2,1-d]thiazol-2-ylamino)-3-trifluoromethoxy-benzonitrile.HCl]
6000	650	1600	COc1ccc(NC(N)=O)cc1Nc1nc2c(ccc3c2ncn3C)s1 [Example 87, [4-Methoxy-3-(6-methyl-6H-imidazo[4′,5′:3,4]benzo[2,1-d]thiazol-2-ylamino)-phenyl]-urea.HCl]
19000	180	8100	COc1ccc(F)cc1Nc1nc2c(ccc3c2cnn3C)s1 [Example 93, (5-Fluoro-2-methoxy-phenyl)-(6-methyl-6H-3-thia-1,6,7-triaza-as-indacen-2-yl)-amine.HCl]
15000	510	9200	COc1ccccc1Nc1nc2c(ccc3c2cnn3C)s1 [Example 94, (2-Methoxy-phenyl)-(6-methyl-6H-3-thia-1,6,7-triaza-as-indacen-2-yl)-amine.TFA]
730	730	440	COc1ccc(C(N)=O)cc1Nc1nc2c(ccc3cnccc32)s1 [Example 96, 4-Methoxy-3-(thiazolo[4,5-f]isoquinolin-2-ylamino)-benzamide.TFA]
4400	180	1000	COc1ccc(S(C)(=O)=O)cc1Nc1nc2c(ccc3cnccc32)s1 [Example 97, (5-Methanesulfonyl-2-methoxy-phenyl)-thiazolo[4,5-f]isoquinolin-2-yl-amine.TFA]
7600	> 20000	3000	NS(=O)(=O)c1ccc(OC(F)(F)F)c(Nc2nc3c(ccc4cnccc43)s2)c1 [Example 98, 3-(Thiazolo[4,5-f]isoquinolin-2-ylamino)-4-trifluoromethoxy-benzenesulfonamide.TFA]
20000	870	3200	COc1ccc(F)cc1Nc1nc2c(ccc3cnccc32)s1 [Example 99, (5-Fluoro-2-methoxy-phenyl)-thiazolo[4,5-f]isoquinolin-2-yl-amine.TFA]
790	760	430	Cn1ncc2c3nc(Nc4cc(S(N)(=O)=O)ccc4OC(F)(F)F)sc3ccc21 [Example 101, 3-(6-Methyl-6H-3-thia-1,6,7-triaza-as-indacen-2-ylamino)-4-trifluoromethoxy-benzenesulfonamide.TFA]
250	390	680	CC(C)Oc1ccc(S(N)(=O)=O)cc1Nc1nc2c(ccc3c2cnn3C)s1 [Example 102, 4-Isopropoxy-3-(6-methyl-6H-3-thia-1,6,7-triaza-as-indacen-2-ylamino)-benzenesulfonamide.TFA]
750	380	370	COc1ccc(S(N)(=O)=O)cc1Nc1nc2c(ccc3c2cnn3C)s1 [Example 103, 4-Methoxy-3-(6-methyl-6H-3-thia-1,6,7-triaza-as-indacen-2-ylamino)-benzenesulfonamide.TFA]
65000	850	800	CC(C)Oc1ccc(S(N)(=O)=O)cc1Nc1nc2c(ccc3cnccc32)s1 [Example 105, 4-Isopropoxy-3-(thiazolo[4,5-f]isoquinolin-2-ylamino)-benzenesulfonamide.TFA]
600	190	530	CCn1ncc2c3nc(Nc4cc(S(C)(=O)=O)ccc4OC)sc3ccc21 [Example 106, (6-Ethyl-6H-3-thia-1,6,7-triaza-as-indacen-2-yl)-(5-methanesulfonyl-2-methoxy-phenyl)-amine.TFA]
6800	580	1500	CCn1cc2c(ccc3sc(Nc4cc(S(C)(=O)=O)ccc4OC)nc32)n1 [Example 107, (7-Ethyl-7H-3-thia-1,6,7-triaza-as-indacen-2-yl)-(5-methanesulfonyl-2-methoxy-phenyl)-amine.TFA]
> 95000	650	1400	COc1ccc(S(C)(=O)=O)cc1Nc1nc2c(ccc3c2cnn3CC(C)C)s1 [Example 108, (6-Isobutyl-6H-3-thia-1,6,7-triaza-as-indacen-2-yl)-(5-methanesulfonyl-2-methoxy-phenyl)-amine.TFA]
> 95000	~2000	2300	COc1ccc(S(C)(=O)=O)cc1Nc1nc2c(ccc3c2cnn3CCC(C)C)s1 [Example 109, (5-Methanesulfonyl-2-methoxy-phenyl)-[6-(3-methyl-butyl)-6H-3-thia-1,6,7-triaza-as-indacen-2-yl]-amine.TFA]
> 95000	260	340	COc1ccc(S(C)(=O)=O)cc1Nc1nc2c(ccc3[nH]ncc32)s1 [Example 110, (5-Methanesulfonyl-2-methoxy-phenyl)-(6H-3-thia-1,6,7-triaza-as-indacen-2-yl)-amine.TFA]
